Data from PubChem BioAssay (NCI).
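The compound was tested at five concentrations on cells cultured in 96-well plates, with a 48-hour exposure period. Abbreviation: GI50, concentration required for 50% inhibition of growth. The concentration for full growth arrest is given as TGI.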

Key:
Test in all cases: inhibition of tumour cell growth, NCI panel, 48 h
OVCAR-4 ovarian = system: OVCAR-4 ovarian
NCI-H226 lung = system: NCI-H226 lung
SK-MEL-2 melanoma = system: SK-MEL-2 melanoma
OVCAR-8 ovarian = system: OVCAR-8 ovarian
IGROV1 ovarian = system: IGROV1 ovarian
HCT-15 colon = system: HCT-15 colon
SN12C renal = system: SN12C renal
HCT-116 colon = system: HCT-116 colon
HS 578T breast = system: HS 578T breast
RXF 393 renal = system: RXF 393 renal
UO-31 renal = system: UO-31 renal
HT29 colon = system: HT29 colon
SF-268 CNS = system: SF-268 CNS
A549 NSCLC = system: A549 NSCLC
MDA-MB-435 = system: MDA-MB-435
SK-OV-3 ovarian = system: SK-OV-3 ovarian
SF-295 CNS = system: SF-295 CNS
LOX IMVI melanoma = system: LOX IMVI melanoma
MALME-3M melanoma = system: MALME-3M melanoma
MOLT-4 leukemia = system: MOLT-4 leukemia
T-47D breast = system: T-47D breast
CAKI-1 renal = system: CAKI-1 renal
BT-549 breast = system: BT-549 breast
SNB-19 CNS = system: SNB-19 CNS
OVCAR-5 ovarian = system: OVCAR-5 ovarian
MCF7 breast = system: MCF7 breast
SK-MEL-5 melanoma = system: SK-MEL-5 melanoma
COLO 205 colon = system: COLO 205 colon
KM12 colon = system: KM12 colon
SNB-75 CNS = system: SNB-75 CNS
SW-620 colon = system: SW-620 colon
EKVX NSCLC = system: EKVX NSCLC
ACHN renal = system: ACHN renal
NCI-H460 lung = system: NCI-H460 lung
NCI-H23 lung = system: NCI-H23 lung
NCI-H522 lung = system: NCI-H522 lung
OVCAR-3 ovarian = system: OVCAR-3 ovarian
NCI/ADR-RES ovarian = system: NCI/ADR-RES ovarian
SK-MEL-28 melanoma = system: SK-MEL-28 melanoma
U251 CNS = system: U251 CNS
M14 melanoma = system: M14 melanoma
UACC-257 melanoma = system: UACC-257 melanoma
DU-145 prostate = system: DU-145 prostate
RPMI-8226 leukemia = system: RPMI-8226 leukemia
SF-539 CNS = system: SF-539 CNS
CCRF-CEM leukemia = system: CCRF-CEM leukemia
UACC-62 melanoma = system: UACC-62 melanoma
PC-3 prostate = system: PC-3 prostate
HOP-92 NSCLC = system: HOP-92 NSCLC
TK-10 renal = system: TK-10 renal
MDA-N = system: MDA-N
HOP-62 NSCLC = system: HOP-62 NSCLC
K-562 leukemia = system: K-562 leukemia
A498 renal = system: A498 renal
HCC-2998 colon = system: HCC-2998 colon
HL-60(TB) leukemia = system: HL-60(TB) leukemia
SR leukemia = system: SR leukemia
MDA-MB-231 breast = system: MDA-MB-231 breast
786-0 renal = system: 786-0 renal

CCOC(=O)C(=O)/C(=C/N1C(=O)CC(=O)NC1=S)C(=O)OCC
TGI (OVCAR-4 ovarian): > 100 µM | TGI (NCI-H226 lung): > 100 µM | TGI (SK-MEL-2 melanoma): > 100 µM | TGI (OVCAR-8 ovarian): > 100 µM | TGI (IGROV1 ovarian): > 100 µM | TGI (HCT-15 colon): > 100 µM | TGI (SN12C renal): > 100 µM | TGI (HCT-116 colon): > 100 µM | TGI (HS 578T breast): > 100 µM | TGI (RXF 393 renal): > 100 µM | TGI (UO-31 renal): > 100 µM | TGI (HT29 colon): > 100 µM | TGI (SF-268 CNS): > 100 µM | TGI (A549 NSCLC): > 100 µM | TGI (MDA-MB-435): > 100 µM | TGI (SK-OV-3 ovarian): > 100 µM | TGI (SF-295 CNS): > 100 µM | TGI (LOX IMVI melanoma): > 100 µM | TGI (MALME-3M melanoma): > 100 µM | TGI (MOLT-4 leukemia): > 100 µM | TGI (T-47D breast): > 100 µM | TGI (CAKI-1 renal): > 100 µM | TGI (BT-549 breast): > 100 µM | TGI (SNB-19 CNS): > 100 µM | TGI (OVCAR-5 ovarian): > 100 µM | TGI (MCF7 breast): > 100 µM | TGI (SK-MEL-5 melanoma): > 100 µM | TGI (COLO 205 colon): > 100 µM | TGI (KM12 colon): > 100 µM | TGI (SNB-75 CNS): > 100 µM | TGI (SW-620 colon): > 100 µM | TGI (EKVX NSCLC): > 100 µM | TGI (ACHN renal): > 100 µM | TGI (NCI-H460 lung): > 100 µM | TGI (NCI-H23 lung): > 100 µM | TGI (NCI-H522 lung): > 100 µM | TGI (OVCAR-3 ovarian): > 60.2 µM | TGI (NCI/ADR-RES ovarian): > 100 µM | TGI (SK-MEL-28 melanoma): > 100 µM | TGI (U251 CNS): > 100 µM | TGI (M14 melanoma): > 100 µM | TGI (UACC-257 melanoma): > 100 µM | TGI (DU-145 prostate): > 100 µM | TGI (RPMI-8226 leukemia): > 100 µM | TGI (SF-539 CNS): > 100 µM | TGI (CCRF-CEM leukemia): > 100 µM | TGI (UACC-62 melanoma): > 100 µM | TGI (PC-3 prostate): > 100 µM | TGI (HOP-92 NSCLC): > 92.9 µM | GI50 (TK-10 renal): > 100 µM | TGI (TK-10 renal): > 100 µM | TGI (MDA-N): > 100 µM | TGI (HOP-62 NSCLC): > 100 µM | TGI (K-562 leukemia): > 100 µM | TGI (A498 renal): > 100 µM | TGI (HCC-2998 colon): > 100 µM | TGI (HL-60(TB) leukemia): > 100 µM | TGI (SR leukemia): > 100 µM | TGI (MDA-MB-231 breast): > 100 µM | TGI (786-0 renal): > 100 µM
